Reference: US20020137929A1, “1 - (3-heterocyclylphenyl) isothiourea, -isourea, -guanidine and -amidine herbicidal agents” (Intellectual Property Department, BASF Aktiengesellschaft, priority 1998, published 2002)

Legend:
CASOB (Sicklepod) = assay: Postemergence herbicidal evaluation; format: in vivo, Cassia obtusifolia; conditions: postemergence
How it was run: (§1)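 Two-week seedlings sprayed postemergence at 40 psi; formulation: 1:1 acetone/water, 0.5% TWEEN 20; application ≈0.0156–0.500 kg/ha. Greenhouse grow-out, then 0–9 visual scoring at 4–5 weeks.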

[1] = tested on: CHEAL (Lambsquarters, Common); assay: Postemergence herbicidal evaluation; format: in vivo, Chenopodium album; conditions: postemergence
How it was run: as §1

ECHCG (Barnyardgrass) = assay: Postemergence herbicidal evaluation; format: in vivo, Echinochloa crus-galli; conditions: postemergence
How it was run: as §1

ORYSAT (Rice, Tebonnet) [2] = assay: Postemergence herbicidal evaluation; format: in vivo, Oryza sativa, (L.) Tebonnet; conditions: postemergence
How it was run: as §1

GALAP (Galium) = assay: Preemergence herbicidal evaluation; format: in vivo, Galium aparine; conditions: rated 4-5 weeks after treatment
How it was run: (§2)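 Seeds were planted in potting soil in cups, then sprayed preemergence with the test compound in aqueous acetone at about 0.0156 to 0.500 kg per hectare. Cups were kept under greenhouse conditions and visually rated 4–5 weeks after treatment on a 0–9 scale against an untreated control.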

SETVI (Foxtail, Green) = assay: Preemergence herbicidal evaluation; format: in vivo, Setaria viridis; conditions: rated 4-5 weeks after treatment
How it was run: as §2

[3] = tested on: GLXMAW (Soybean, Williams); assay: Preemergence herbicidal evaluation; format: in vivo, Glycine max, (L.) Merr. cv Williams; conditions: rated 4-5 weeks after treatment
How it was run: as §2

ORYSAT (Rice, Tebonnet) [4] = assay: Preemergence herbicidal evaluation; format: in vivo, Oryza sativa, (L.) Tebonnet; conditions: rated 4-5 weeks after treatment
How it was run: as §2

[5] = tested on: TRZAWR (Wheat, Winter, cv Riband); assay: Preemergence herbicidal evaluation; format: in vivo, Triticum aestivum; conditions: rated 4-5 weeks after treatment
How it was run: as §2

ZEAMX (Corn, Field) = assay: Preemergence herbicidal evaluation; format: in vivo, Zea mays; conditions: rated 4-5 weeks after treatment
How it was run: as §2

CYPIR (Rice Flatsedge) = assay: Preemergence weed control under flooded paddy conditions; format: in vivo, Cyperus iria; conditions: rated 3-4 weeks after treatment
How it was run: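 Seeds or propagules sown in silt loam kept flooded 1.5-3 cm; compounds in 50/50 acetone/water pipetted into flood water at about 0.0313 to 0.500 kg/ha. Greenhouse; visual 0-9 rating versus untreated control 3-4 weeks after treatment.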

MOOVA (Monochoria) = assay: as above; format: in vivo, Monochoria vaginalis; conditions: rated 3-4 weeks after treatment
How it was run: (§3)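 Flooded-pot preemergence screen with silt loam and seeds in the upper 0.5 cm. Dose about 0.0313 to 0.500 kg/ha, delivered into flood water; visual 0-9 score after 3 to 4 weeks.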

[6] = tested on: SAGPY (Arrowhead (Pygmaea)); assay: as above; format: in vivo, Sagittaria pygmaea; conditions: rated 3-4 weeks after treatment
How it was run: as §3

CYPSE (Flatsedge) = assay: Postemergence weed control under flooded paddy conditions; format: in vivo, Cyperus serotinus; conditions: postemergence weeds, 3-4 weeks after treatment
How it was run: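 Containers holding 3–5 cm weeds and rice at 1.5–2.5 leaves are flooded to 1.5–3 cm above soil. Compound in 50/50 v/v aqueous/acetone is then added directly to the water, about 0.0313–0.500 kg/ha. Plants are kept in the greenhouse and rated 0–9 visually at 3–4 weeks.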

COC(=O)CN1C(=O)CSC1=Nc1cc(-n2c(=O)cc(C(F)(F)F)n(C)c2=O)c(F)cc1Cl [Compound 17, Methyl 2-{{2-chloro-5-[3,6-dihydro-3-methyl-2,6-dioxo-4-(trifluoromethyl)-1(2H)-pyrimidinyl]-4-fluorophenyl}imino}-4-oxo-3-thiazolidineacetate]
CASOB herbicidal rating (CASOB (Sicklepod); rate 0.0156 kg/ha): 0.0
CASOB herbicidal rating (CASOB (Sicklepod); rate 0.0313 kg/ha): 1.0
CASOB herbicidal rating (CASOB (Sicklepod); rate 0.0625 kg/ha): 1.0
CASOB herbicidal rating (CASOB (Sicklepod); rate 0.1250 kg/ha): 5.5
CHEAL herbicidal rating ([1]; rate 0.0156 kg/ha): 2.5
CHEAL herbicidal rating ([1]; rate 0.0313 kg/ha): 3.0
CHEAL herbicidal rating ([1]; rate 0.0625 kg/ha): 4.0
CHEAL herbicidal rating ([1]; rate 0.1250 kg/ha): 8.0
ECHCG herbicidal rating (ECHCG (Barnyardgrass); rate 0.0156 kg/ha): 0.0
ECHCG herbicidal rating (ECHCG (Barnyardgrass); rate 0.0313 kg/ha): 0.0
ECHCG herbicidal rating (ECHCG (Barnyardgrass); rate 0.0625 kg/ha): 2.5
ECHCG herbicidal rating (ECHCG (Barnyardgrass); rate 0.1250 kg/ha): 8.0
ORYSAT herbicidal rating (ORYSAT (Rice, Tebonnet) [2]; rate 0.0156 kg/ha): 1.8
ORYSAT herbicidal rating (ORYSAT (Rice, Tebonnet) [2]; rate 0.0313 kg/ha): 3.0
ORYSAT herbicidal rating (ORYSAT (Rice, Tebonnet) [2]; rate 0.0625 kg/ha): 3.5
ORYSAT herbicidal rating (ORYSAT (Rice, Tebonnet) [2]; rate 0.1250 kg/ha): 5.0
GALAP preemergence herbicidal rating (GALAP (Galium); rate 0.0156 kg/ha): 0.0
GALAP preemergence herbicidal rating (GALAP (Galium); rate 0.0313 kg/ha): 0.0
GALAP preemergence herbicidal rating (GALAP (Galium); rate 0.0625 kg/ha): 0.0
GALAP preemergence herbicidal rating (GALAP (Galium); rate 0.1250 kg/ha): 1.0
GALAP preemergence herbicidal rating (GALAP (Galium); rate 0.2500 kg/ha): 9.0
GALAP preemergence herbicidal rating (GALAP (Galium); rate 0.5000 kg/ha): 9.0
SETVI preemergence herbicidal rating (SETVI (Foxtail, Green); rate 0.0156 kg/ha): 0.5
SETVI preemergence herbicidal rating (SETVI (Foxtail, Green); rate 0.0313 kg/ha): 1.3
SETVI preemergence herbicidal rating (SETVI (Foxtail, Green); rate 0.0625 kg/ha): 2.3
SETVI preemergence herbicidal rating (SETVI (Foxtail, Green); rate 0.1250 kg/ha): 6.7
SETVI preemergence herbicidal rating (SETVI (Foxtail, Green); rate 0.2500 kg/ha): 9.0
SETVI preemergence herbicidal rating (SETVI (Foxtail, Green); rate 0.5000 kg/ha): 9.0
GLXMAW preemergence herbicidal rating ([3]; rate 0.0156 kg/ha): 0.0
GLXMAW preemergence herbicidal rating ([3]; rate 0.0313 kg/ha): 0.0
GLXMAW preemergence herbicidal rating ([3]; rate 0.0625 kg/ha): 0.3
GLXMAW preemergence herbicidal rating ([3]; rate 0.1250 kg/ha): 0.3
GLXMAW preemergence herbicidal rating ([3]; rate 0.2500 kg/ha): 3.3
GLXMAW preemergence herbicidal rating ([3]; rate 0.5000 kg/ha): 6.5
ORYSAT preemergence herbicidal rating (ORYSAT (Rice, Tebonnet) [4]; rate 0.0156 kg/ha): 0.0
ORYSAT preemergence herbicidal rating (ORYSAT (Rice, Tebonnet) [4]; rate 0.0313 kg/ha): 0.0
ORYSAT preemergence herbicidal rating (ORYSAT (Rice, Tebonnet) [4]; rate 0.0625 kg/ha): 1.0
ORYSAT preemergence herbicidal rating (ORYSAT (Rice, Tebonnet) [4]; rate 0.1250 kg/ha): 1.0
ORYSAT preemergence herbicidal rating (ORYSAT (Rice, Tebonnet) [4]; rate 0.2500 kg/ha): 3.3
ORYSAT preemergence herbicidal rating (ORYSAT (Rice, Tebonnet) [4]; rate 0.5000 kg/ha): 6.5
TRZAWR preemergence herbicidal rating ([5]; rate 0.0156 kg/ha): 0.0
TRZAWR preemergence herbicidal rating ([5]; rate 0.0313 kg/ha): 0.0
TRZAWR preemergence herbicidal rating ([5]; rate 0.0625 kg/ha): 0.0
TRZAWR preemergence herbicidal rating ([5]; rate 0.1250 kg/ha): 2.0
TRZAWR preemergence herbicidal rating ([5]; rate 0.2500 kg/ha): 7.0
TRZAWR preemergence herbicidal rating ([5]; rate 0.5000 kg/ha): 7.0
ZEAMX preemergence herbicidal rating (ZEAMX (Corn, Field); rate 0.0156 kg/ha): 0.0
ZEAMX preemergence herbicidal rating (ZEAMX (Corn, Field); rate 0.0313 kg/ha): 0.3
ZEAMX preemergence herbicidal rating (ZEAMX (Corn, Field); rate 0.0625 kg/ha): 1.0
ZEAMX preemergence herbicidal rating (ZEAMX (Corn, Field); rate 0.1250 kg/ha): 1.0
ZEAMX preemergence herbicidal rating (ZEAMX (Corn, Field); rate 0.2500 kg/ha): 3.3
ZEAMX preemergence herbicidal rating (ZEAMX (Corn, Field); rate 0.5000 kg/ha): 5.5
Herbicidal rating CYPIR (CYPIR (Rice Flatsedge); 0.0313 kg/ha): 0.0
Herbicidal rating CYPIR (CYPIR (Rice Flatsedge); 0.0625 kg/ha): 0.0
Herbicidal rating CYPIR (CYPIR (Rice Flatsedge); 0.1250 kg/ha): 6.0
Herbicidal rating CYPIR (CYPIR (Rice Flatsedge); 0.2500 kg/ha): 9.0
Herbicidal rating MOOVA (MOOVA (Monochoria); 0.0313 kg/ha): 9.0
Herbicidal rating MOOVA (MOOVA (Monochoria); 0.0625 kg/ha): 9.0
Herbicidal rating MOOVA (MOOVA (Monochoria); 0.1250 kg/ha): 9.0
Herbicidal rating MOOVA (MOOVA (Monochoria); 0.2500 kg/ha): 9.0
Herbicidal rating SAGPY ([6]; 0.0313 kg/ha): 0.0
Herbicidal rating SAGPY ([6]; 0.0625 kg/ha): 0.0
Herbicidal rating SAGPY ([6]; 0.1250 kg/ha): 4.0
Herbicidal rating SAGPY ([6]; 0.2500 kg/ha): 4.0
Herbicidal rating CYPSE (CYPSE (Flatsedge); rate 0.0313 kg/ha): 9.0
Herbicidal rating CYPSE (CYPSE (Flatsedge); rate 0.0625 kg/ha): 9.0
Herbicidal rating CYPSE (CYPSE (Flatsedge); rate 0.1250 kg/ha): 9.0
Herbicidal rating CYPSE (CYPSE (Flatsedge); rate 0.2500 kg/ha): 9.0
